Results: ChEMBL document CHEMBL3774354, “Discovery of Selective Histone Deacetylase 6 Inhibitors Using the Quinazoline as the Cap for the Treatment of Cancer” (J Med Chem, 2016)
Values belong to the compound of their own block, whether it stands above or below them. Active and inactive are the calls of the source. The rule behind the calls is not given here.

What was measured:
Histone deacetylase 1 = Histone deacetylase 1 (Homo sapiens, UniProt Q13547)
Description: Inhibition of human recombinant HDAC1 using AMC labeled AC-peptide as substrate incubated for 1 hr by fluorescence analysis

[1] = target: T1, Protein deacetylase HDAC6 (Homo sapiens, UniProt Q9UBN7)
T1 sequence (Q9UBN7 whole entry): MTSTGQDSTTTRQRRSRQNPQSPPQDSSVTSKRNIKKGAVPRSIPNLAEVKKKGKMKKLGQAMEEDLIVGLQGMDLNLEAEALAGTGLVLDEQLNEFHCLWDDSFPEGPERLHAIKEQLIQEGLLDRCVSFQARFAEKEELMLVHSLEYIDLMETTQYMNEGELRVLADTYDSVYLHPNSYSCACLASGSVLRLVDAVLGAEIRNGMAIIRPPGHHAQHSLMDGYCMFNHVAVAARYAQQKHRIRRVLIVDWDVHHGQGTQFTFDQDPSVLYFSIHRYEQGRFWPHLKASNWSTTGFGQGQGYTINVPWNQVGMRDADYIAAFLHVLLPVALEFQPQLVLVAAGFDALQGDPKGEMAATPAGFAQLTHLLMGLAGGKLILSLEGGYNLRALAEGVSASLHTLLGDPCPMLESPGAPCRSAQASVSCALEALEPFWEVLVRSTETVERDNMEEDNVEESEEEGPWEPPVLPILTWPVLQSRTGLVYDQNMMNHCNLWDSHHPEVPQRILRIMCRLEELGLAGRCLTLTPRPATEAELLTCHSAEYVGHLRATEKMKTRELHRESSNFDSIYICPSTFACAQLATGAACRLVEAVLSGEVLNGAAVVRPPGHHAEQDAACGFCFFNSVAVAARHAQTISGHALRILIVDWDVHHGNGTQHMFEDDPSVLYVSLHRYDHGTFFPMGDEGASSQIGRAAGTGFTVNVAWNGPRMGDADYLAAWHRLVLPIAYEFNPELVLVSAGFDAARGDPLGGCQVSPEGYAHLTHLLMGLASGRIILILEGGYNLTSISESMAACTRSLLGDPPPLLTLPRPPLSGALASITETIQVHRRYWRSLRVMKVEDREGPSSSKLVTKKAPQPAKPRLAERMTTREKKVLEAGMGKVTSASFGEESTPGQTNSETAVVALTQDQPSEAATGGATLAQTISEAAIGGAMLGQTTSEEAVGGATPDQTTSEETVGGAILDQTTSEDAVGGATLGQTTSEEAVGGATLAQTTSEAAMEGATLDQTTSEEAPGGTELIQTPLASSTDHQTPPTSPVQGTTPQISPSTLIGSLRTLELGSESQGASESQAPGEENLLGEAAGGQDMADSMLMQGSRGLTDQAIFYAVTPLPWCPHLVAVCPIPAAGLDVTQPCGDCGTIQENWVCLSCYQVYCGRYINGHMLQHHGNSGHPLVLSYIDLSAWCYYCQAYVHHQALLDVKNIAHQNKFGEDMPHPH
Description: Inhibition of human recombinant HDAC6 using AMC labeled AC-peptide as substrate incubated for 1 hr by fluorescence analysis

Histone deacetylase 8 = target: T2, Histone deacetylase 8 (Homo sapiens, UniProt Q9BY41)
T2 sequence (Q9BY41 whole entry): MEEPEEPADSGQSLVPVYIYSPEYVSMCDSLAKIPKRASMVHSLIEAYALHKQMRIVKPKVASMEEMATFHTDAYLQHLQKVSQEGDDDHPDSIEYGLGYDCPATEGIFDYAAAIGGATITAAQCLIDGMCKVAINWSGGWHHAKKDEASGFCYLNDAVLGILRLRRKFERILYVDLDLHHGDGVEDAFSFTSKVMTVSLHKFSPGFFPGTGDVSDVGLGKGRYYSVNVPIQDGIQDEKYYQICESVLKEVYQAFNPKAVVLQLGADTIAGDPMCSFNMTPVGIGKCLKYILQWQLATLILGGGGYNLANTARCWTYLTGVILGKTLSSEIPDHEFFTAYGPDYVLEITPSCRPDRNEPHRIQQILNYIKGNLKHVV
Description: Inhibition of human recombinant HDAC8 using AMC labeled AC-peptide as substrate incubated for 1 hr by fluorescence analysis

[2] = target: T1, Protein deacetylase HDAC6; assay: Inhibition of HDAC6 in human HeLa cells assessed as induction of tubulin acetylation incubated for 6 hrs by cytoblot assay; assay type: cell-based
HeLa [3] = assay: Induction of histone H3 acetylation in human HeLa cells incubated for 6 hrs by cytoblot assay; assay type: functional, cell-based
A-375 = assay: Antiproliferative activity against human A375 cells after 72 hrs by MTT assay; assay type: functional, cell-based; settings: A-375, 72 h
HeLa [4] = assay: Antiproliferative activity against human HeLa cells after 72 hrs by MTT assay; assay type: functional, cell-based
Mus musculus = assay: Toxicity in NOD/SCID mouse xenografted with human Ramos cells assessed as death at 40 mg/kg, po q2d for 6 days; assay type: organism-based; settings: in vivo, 144 h
[5] = target: T3, Protein deacetylase HDAC6 (Homo sapiens) (UniProt Q9UBN7); assay: Inhibition of HDAC6 in human MV4-11 cells assessed as upregulation of alpha- tubulin acetylation after 6 hrs by Western blot analysis; assay type: cell-based
T3 sequence (whole entry): T1 sequence (Q9UBN7 whole entry)

[6] = target: T3, Protein deacetylase HDAC6 (Homo sapiens); assay: Inhibition of HDAC6 in human HCT116 cells assessed as upregulation of alpha- tubulin acetylation after 6 hrs by Western blot analysis; assay type: cell-based; settings: HCT-116
Histone deacetylase 5 = Histone deacetylase 5 (Homo sapiens, UniProt Q9UQL6); assay: Inhibition of recombinant HDAC5 (unknown origin) using AMC labeled AC-peptide as substrate at 10 uM incubated for 1 hr by fluorescence analysis
[7] = target: Histone deacetylase 7 (Homo sapiens) (UniProt Q8WUI4); assay: Inhibition of recombinant HDAC7 (unknown origin) using AMC labeled AC-peptide as substrate at 10 uM incubated for 1 hr by fluorescence analysis
Histone deacetylase 9 = Histone deacetylase 9 (Homo sapiens, UniProt Q9UKV0); assay: Inhibition of recombinant HDAC9 (unknown origin) using AMC labeled AC-peptide as substrate at 10 uM incubated for 1 hr by fluorescence analysis
[8] = target: Histone deacetylase 11 (Homo sapiens) (UniProt Q96DB2); assay: Inhibition of recombinant HDAC11 (unknown origin) using AMC labeled AC-peptide as substrate at 10 uM incubated for 1 hr by fluorescence analysis
[9] = Cytotoxicity against human U266 cells after 72 hrs by MTT assay; assay type: functional, cell-based; settings: U-266, 72 h
[10] = Cytotoxicity against human RPMI8226 cells after 72 hrs by MTT assay; assay type: functional, cell-based; settings: RPMI-8226, 72 h
MV4-11 = assay: Cytotoxicity against human MV4-11 cells after 72 hrs by MTT assay; assay type: functional, cell-based; settings: MV4-11, 72 h
K562 = assay: Cytotoxicity against human K562 cells after 72 hrs by MTT assay; assay type: functional, cell-based; settings: K562, 72 h
Ramos = assay: Cytotoxicity against human Ramos cells after 72 hrs by MTT assay; assay type: functional, cell-based
A2780 = assay: Cytotoxicity against human A2780 cells after 72 hrs by MTT assay; assay type: functional, cell-based; settings: A2780, 72 h
[11] = Cytotoxicity against human SKOV3 cells after 72 hrs by MTT assay; assay type: functional, cell-based; settings: SK-OV-3, 72 h
[12] = Cytotoxicity against human SKBR3 cells after 72 hrs by MTT assay; assay type: functional, cell-based; settings: SK-BR-3, 72 h
HepG2 = assay: Cytotoxicity against human HepG2 cells after 72 hrs by MTT assay; assay type: functional, cell-based; settings: HepG2, 72 h
[13] = Cytotoxicity against human H460 cells after 72 hrs by MTT assay; assay type: functional, cell-based; settings: NCI-H460, 72 h
A549 = assay: Cytotoxicity against human A549 cells after 72 hrs by MTT assay; assay type: functional, cell-based; settings: A549, 72 h
[14] = Cytotoxicity against human HCT116 cells after 72 hrs by MTT assay; assay type: functional, cell-based; settings: HCT-116, 72 h
HT-29 = assay: Cytotoxicity against human HT-29 cells after 72 hrs by MTT assay; assay type: functional, cell-based; settings: HT-29, 72 h
[15] = target: Histone deacetylase 1/2/3 (Homo sapiens) (UniProt Q13547+O15379+Q92769); settings: MV4-11, 1000 nM
Description: Inhibition of HDAC1/2/3 in human MV4-11 cells assessed as upregulation of histone H3 acetylation at 1000 nM after 6 hrs by Western blot analysis

Sequence of Histone deacetylase 1 (Q13547 whole entry): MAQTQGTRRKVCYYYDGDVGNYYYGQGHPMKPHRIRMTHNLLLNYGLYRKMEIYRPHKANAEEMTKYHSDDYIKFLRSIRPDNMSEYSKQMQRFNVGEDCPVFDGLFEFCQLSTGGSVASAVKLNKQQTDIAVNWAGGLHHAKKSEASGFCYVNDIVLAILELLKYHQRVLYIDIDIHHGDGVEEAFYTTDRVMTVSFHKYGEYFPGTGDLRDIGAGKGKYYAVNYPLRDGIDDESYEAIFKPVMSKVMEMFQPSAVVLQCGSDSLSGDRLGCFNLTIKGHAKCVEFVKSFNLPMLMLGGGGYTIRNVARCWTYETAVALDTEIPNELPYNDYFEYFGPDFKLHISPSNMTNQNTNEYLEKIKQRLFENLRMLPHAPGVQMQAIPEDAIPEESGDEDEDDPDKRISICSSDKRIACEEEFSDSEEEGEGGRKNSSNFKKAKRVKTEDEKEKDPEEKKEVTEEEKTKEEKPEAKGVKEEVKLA
Sequence of Histone deacetylase 5 (Q9UQL6 whole entry): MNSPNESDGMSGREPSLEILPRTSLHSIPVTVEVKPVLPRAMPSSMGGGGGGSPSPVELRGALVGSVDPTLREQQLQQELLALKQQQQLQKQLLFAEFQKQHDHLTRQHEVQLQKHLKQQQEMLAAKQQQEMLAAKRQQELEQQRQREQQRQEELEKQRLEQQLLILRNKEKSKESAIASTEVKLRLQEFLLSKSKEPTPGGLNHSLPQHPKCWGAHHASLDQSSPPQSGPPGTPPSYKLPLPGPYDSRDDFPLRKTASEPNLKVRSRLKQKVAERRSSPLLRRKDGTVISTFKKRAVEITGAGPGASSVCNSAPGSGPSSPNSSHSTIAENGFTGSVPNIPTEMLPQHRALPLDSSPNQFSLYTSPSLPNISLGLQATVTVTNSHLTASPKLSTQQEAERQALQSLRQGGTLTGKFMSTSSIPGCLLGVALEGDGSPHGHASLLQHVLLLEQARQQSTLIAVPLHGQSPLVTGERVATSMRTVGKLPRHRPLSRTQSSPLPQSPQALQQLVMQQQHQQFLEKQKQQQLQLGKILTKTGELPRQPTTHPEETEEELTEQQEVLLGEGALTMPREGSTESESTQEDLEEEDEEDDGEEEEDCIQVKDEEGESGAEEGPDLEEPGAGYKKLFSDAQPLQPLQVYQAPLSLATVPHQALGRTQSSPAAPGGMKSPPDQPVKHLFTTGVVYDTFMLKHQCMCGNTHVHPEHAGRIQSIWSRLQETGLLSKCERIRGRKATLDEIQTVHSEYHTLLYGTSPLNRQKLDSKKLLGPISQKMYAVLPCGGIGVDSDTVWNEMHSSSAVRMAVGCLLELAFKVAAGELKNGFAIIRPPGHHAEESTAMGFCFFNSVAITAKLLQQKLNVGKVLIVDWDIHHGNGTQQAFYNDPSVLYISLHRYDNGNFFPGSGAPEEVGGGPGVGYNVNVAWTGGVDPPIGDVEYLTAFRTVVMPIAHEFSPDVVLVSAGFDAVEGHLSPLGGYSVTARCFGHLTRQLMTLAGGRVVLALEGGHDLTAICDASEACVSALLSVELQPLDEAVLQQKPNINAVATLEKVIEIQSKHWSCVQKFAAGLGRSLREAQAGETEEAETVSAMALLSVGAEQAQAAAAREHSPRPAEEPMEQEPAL
Sequence of Histone deacetylase 11 (Homo sapiens) (Q96DB2 whole entry): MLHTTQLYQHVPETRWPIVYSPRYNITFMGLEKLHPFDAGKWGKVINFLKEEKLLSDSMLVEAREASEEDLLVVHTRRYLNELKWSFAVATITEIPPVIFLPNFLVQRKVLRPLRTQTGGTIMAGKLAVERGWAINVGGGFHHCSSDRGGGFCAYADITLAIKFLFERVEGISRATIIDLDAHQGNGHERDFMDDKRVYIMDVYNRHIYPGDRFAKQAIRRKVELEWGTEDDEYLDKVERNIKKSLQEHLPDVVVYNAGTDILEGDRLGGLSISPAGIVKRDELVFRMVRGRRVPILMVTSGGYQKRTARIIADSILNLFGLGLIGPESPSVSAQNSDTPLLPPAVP
Sequence of Histone deacetylase 7 (Homo sapiens) (Q8WUI4 whole entry): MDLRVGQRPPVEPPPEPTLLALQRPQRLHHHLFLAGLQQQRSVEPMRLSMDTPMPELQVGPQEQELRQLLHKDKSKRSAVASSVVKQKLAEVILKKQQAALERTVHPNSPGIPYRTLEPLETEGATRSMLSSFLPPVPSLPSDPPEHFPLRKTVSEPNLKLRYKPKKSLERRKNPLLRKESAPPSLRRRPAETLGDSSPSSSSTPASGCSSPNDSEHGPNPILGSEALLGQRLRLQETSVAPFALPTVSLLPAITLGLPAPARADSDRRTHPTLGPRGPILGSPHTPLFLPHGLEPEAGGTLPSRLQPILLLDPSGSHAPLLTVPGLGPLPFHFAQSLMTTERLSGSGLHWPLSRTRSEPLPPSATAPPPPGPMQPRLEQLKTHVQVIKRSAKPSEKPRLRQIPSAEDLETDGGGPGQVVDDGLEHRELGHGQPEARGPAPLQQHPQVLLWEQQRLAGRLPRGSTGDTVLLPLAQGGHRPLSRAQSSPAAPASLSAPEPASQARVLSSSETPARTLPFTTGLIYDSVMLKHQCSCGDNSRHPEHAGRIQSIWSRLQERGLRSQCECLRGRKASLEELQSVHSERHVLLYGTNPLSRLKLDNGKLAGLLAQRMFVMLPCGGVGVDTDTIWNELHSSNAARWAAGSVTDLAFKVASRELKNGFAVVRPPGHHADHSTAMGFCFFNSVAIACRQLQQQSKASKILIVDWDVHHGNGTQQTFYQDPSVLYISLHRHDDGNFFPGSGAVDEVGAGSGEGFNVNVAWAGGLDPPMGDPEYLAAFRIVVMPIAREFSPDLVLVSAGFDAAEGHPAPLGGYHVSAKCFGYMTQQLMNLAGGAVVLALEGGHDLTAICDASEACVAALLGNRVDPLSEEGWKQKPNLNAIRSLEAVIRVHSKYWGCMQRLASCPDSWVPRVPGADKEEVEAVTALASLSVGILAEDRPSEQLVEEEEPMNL
Sequence of Histone deacetylase 9 (Q9UKV0 whole entry): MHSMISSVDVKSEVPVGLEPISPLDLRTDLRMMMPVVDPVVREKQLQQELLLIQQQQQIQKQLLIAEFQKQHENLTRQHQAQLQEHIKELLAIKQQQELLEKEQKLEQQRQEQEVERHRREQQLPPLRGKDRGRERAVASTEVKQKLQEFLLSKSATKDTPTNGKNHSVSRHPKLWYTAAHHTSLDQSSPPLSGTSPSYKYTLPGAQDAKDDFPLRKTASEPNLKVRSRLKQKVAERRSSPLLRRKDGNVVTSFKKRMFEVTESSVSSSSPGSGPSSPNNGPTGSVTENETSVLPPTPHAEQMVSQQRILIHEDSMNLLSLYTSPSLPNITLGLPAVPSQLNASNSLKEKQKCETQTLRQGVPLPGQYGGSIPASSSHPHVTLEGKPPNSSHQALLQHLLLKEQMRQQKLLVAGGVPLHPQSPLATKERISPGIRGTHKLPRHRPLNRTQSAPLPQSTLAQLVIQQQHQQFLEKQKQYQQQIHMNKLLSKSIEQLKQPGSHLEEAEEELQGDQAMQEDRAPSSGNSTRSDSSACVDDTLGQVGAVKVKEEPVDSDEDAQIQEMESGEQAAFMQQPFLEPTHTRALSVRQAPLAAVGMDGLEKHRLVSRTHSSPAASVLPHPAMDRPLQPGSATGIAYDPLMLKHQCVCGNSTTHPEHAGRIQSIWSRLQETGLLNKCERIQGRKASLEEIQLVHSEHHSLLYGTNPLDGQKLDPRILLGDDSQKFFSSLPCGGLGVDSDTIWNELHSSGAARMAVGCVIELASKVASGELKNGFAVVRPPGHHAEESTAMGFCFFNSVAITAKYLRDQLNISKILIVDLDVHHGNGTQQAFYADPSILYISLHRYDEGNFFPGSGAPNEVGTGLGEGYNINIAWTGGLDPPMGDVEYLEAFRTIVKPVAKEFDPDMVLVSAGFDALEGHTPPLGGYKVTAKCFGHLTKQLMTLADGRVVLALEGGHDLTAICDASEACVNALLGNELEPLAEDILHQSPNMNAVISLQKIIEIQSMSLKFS

SMILES: Cc1nc(N(C)c2cccc(OCCCC(=O)NO)c2)c2ccccc2n1
IC50 (Histone deacetylase 1): > 1000 nM
IC50 [1]: > 1000 nM
IC50 (Histone deacetylase 8): > 1000 nM

SMILES: COc1ccc(N(C)c2nc(C)nc3ccccc23)cc1OCC(=O)NO
IC50 (Histone deacetylase 1): > 1000 nM
IC50 [1]: > 1000 nM
IC50 (Histone deacetylase 8): > 1000 nM

SMILES: COc1ccc(Nc2nc(C)nc3ccccc23)cc1OCCCC(=O)NO
IC50 (Histone deacetylase 1): > 1000 nM
IC50 [1]: > 1000 nM
IC50 (Histone deacetylase 8): > 1000 nM

SMILES: O=C(CCCCCCNC(=O)c1cnc(N(c2ccccc2)c2ccccc2)nc1)NO [RICOLINOSTAT]
Activity (Mus musculus): Non-toxic
inhibition [5]: Dose-dependent effect
inhibition [6]: Dose-dependent effect
IC50 (HeLa [4]): > 5000 nM
inhibition (Histone deacetylase 5): inactive
inhibition [7]: inactive
inhibition (Histone deacetylase 9): inactive
inhibition [8]: inactive
IC50 [9]: > 5000 nM
IC50 [10]: 1470 nM
IC50 (MV4-11): > 5000 nM
IC50 (K562): > 5000 nM
IC50 (Ramos): > 5000 nM
IC50 (A2780): > 5000 nM
IC50 [11]: > 5000 nM
IC50 [12]: > 5000 nM
IC50 (HepG2): > 5000 nM
IC50 [13]: > 5000 nM
IC50 (A549): > 5000 nM
IC50 [14]: > 5000 nM
IC50 (HT-29): > 5000 nM
inhibition [15]: Active

Continued by falling IC50 (Histone deacetylase 1), values first:

IC50 (Histone deacetylase 1): 306 nM
IC50 [1]: > 1000 nM
IC50 (Histone deacetylase 8): > 1000 nM
SMILES: Cc1nc(N(C)c2cccc(OCCCCC(=O)NO)c2)c2ccccc2n1

EC50 [2]: 49.4 nM
EC50 (HeLa [3]): 1260 nM
IC50 (A-375): 432 nM
IC50 (HeLa [4]): 379 nM
IC50 (Histone deacetylase 1): 242 nM
IC50 [1]: 14 nM
IC50 (Histone deacetylase 8): 1420 nM
SMILES: CN(c1ccc(OCC(=O)NO)cc1)c1ncnc2ccccc12

IC50 (Histone deacetylase 1): 212 nM
IC50 [1]: 63 nM
IC50 (Histone deacetylase 8): 1990 nM
SMILES: Cc1nc2c(c(N(C)c3ccc(OCCCCC(=O)NO)cc3)n1)CCC2

IC50 (Histone deacetylase 1): 204 nM
SMILES: Cc1nc(N(C)c2ccc(OCCCCC(=O)NO)cc2)c2ccccc2n1

IC50 (Histone deacetylase 1): 120 nM
IC50 [1]: 20 nM
IC50 (Histone deacetylase 8): 1000 nM
SMILES: Cc1nc2c(c(N(C)c3ccc(OCCCCCC(=O)NO)cc3)n1)CCC2
